Legend:
[1] = biological target: Mast/stem cell growth factor receptor Kit (Homo sapiens, UniProt P10721); assay: (§1) Inhibition of human N-terminal GST-tagged human c-Kit (Thr544 to Val976 residues) expressed in baculovirus expression system assessed as decrease in biotinylated KDR phosphorylation at Tyr996 preincubated for 5 mins followed by substrate addition measured after 30 mins by DELFIA method
[2] = biological target: Vascular endothelial growth factor receptor 2 (Homo sapiens, UniProt P35968); assay: Inhibition of N-terminal GST-His6-thrombin cleavage site-fused human VEGFR2 (Asp805 to Val1356 residues) expressed in baculovirus expression system using biotinylated gastrin precursor at Tyr87 as substrate preincubated for 5 mins followed by substrate addition measured after 30 mins by DELFIA method
Vascular endothelial growth factor receptor 2, sequence (P35968 whole entry, the tested form may be a part): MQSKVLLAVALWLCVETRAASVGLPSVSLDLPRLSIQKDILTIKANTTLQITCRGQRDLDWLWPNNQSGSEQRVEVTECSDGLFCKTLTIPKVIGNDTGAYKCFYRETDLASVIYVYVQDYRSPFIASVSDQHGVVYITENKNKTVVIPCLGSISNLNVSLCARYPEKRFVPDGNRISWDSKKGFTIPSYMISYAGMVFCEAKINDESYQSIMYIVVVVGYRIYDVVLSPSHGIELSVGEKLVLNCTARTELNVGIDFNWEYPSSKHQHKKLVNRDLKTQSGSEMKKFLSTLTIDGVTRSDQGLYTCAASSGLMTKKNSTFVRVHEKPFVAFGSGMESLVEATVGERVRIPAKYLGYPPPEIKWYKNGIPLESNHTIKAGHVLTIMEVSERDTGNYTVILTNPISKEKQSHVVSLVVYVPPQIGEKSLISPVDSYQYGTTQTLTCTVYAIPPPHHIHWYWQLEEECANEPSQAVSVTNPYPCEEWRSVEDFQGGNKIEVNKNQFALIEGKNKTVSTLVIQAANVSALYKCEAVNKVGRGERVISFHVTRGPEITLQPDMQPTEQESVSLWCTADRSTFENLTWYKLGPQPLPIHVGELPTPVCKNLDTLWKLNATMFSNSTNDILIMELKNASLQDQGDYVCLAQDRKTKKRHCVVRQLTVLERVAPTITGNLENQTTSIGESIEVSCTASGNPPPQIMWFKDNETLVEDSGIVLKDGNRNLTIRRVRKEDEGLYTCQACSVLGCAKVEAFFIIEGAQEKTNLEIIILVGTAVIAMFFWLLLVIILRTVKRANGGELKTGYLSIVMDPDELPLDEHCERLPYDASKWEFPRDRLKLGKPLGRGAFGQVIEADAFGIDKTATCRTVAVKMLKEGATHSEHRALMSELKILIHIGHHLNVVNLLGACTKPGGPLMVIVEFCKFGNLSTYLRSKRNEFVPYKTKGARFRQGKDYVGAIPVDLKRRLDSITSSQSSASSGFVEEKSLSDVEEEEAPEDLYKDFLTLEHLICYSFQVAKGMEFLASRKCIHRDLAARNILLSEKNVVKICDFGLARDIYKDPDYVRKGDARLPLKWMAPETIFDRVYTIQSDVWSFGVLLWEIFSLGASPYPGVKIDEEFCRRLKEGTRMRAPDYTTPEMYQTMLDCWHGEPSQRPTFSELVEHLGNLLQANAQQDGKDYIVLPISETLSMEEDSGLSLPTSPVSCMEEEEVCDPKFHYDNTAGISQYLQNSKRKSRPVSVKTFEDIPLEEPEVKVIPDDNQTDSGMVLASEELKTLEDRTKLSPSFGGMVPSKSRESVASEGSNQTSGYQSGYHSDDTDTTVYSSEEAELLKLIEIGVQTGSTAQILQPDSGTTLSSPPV

[3] = biological target: Platelet-derived growth factor receptor beta (Homo sapiens, UniProt P09619); assay: Inhibition of N-terminal GST-His6-thrombin cleavage site-fused human PDGFRbeta (Arg561 to Leu1106 residues) assessed as decrease in biotinylated FLT3 phosphorylation at Tyr589 preincubated for 5 mins followed by substrate addition measured after 30 mins by DELFIA method
Platelet-derived growth factor receptor beta, sequence (P09619 whole entry, the tested form may be a part): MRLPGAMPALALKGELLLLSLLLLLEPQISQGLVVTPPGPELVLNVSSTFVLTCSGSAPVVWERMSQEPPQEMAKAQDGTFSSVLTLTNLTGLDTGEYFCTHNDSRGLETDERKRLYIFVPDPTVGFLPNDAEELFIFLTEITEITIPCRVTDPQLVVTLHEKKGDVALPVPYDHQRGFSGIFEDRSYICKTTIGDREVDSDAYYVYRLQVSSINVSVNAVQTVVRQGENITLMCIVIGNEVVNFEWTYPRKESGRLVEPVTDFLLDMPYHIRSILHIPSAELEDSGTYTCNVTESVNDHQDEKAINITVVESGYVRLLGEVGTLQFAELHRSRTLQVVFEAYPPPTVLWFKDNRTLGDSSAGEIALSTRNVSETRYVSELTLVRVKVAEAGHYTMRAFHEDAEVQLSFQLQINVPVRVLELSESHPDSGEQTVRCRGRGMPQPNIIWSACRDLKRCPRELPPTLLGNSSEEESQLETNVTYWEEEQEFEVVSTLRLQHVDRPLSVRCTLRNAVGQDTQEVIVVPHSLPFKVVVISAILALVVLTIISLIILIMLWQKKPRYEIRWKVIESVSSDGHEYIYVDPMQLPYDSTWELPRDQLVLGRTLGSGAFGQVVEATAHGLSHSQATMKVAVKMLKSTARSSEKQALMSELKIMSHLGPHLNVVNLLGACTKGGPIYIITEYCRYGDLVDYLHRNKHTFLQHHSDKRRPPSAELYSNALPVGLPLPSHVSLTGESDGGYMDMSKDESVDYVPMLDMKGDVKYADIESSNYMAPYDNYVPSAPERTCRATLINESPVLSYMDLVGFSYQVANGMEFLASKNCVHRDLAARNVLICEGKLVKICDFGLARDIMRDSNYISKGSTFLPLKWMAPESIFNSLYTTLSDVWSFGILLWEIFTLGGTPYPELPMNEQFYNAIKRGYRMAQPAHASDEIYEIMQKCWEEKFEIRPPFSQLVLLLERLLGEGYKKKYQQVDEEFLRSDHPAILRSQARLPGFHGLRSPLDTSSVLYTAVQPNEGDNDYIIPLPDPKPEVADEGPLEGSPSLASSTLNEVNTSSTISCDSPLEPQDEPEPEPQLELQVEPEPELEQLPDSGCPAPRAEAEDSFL

[4] = biological target: Epidermal growth factor receptor (Homo sapiens, UniProt P00533); assay: Inhibition of N-terminal GST-fused human EGFR (His672 to Ala1210 residues) expressed in baculovirus expression system using biotinylated PTP1B at Tyr66 as substrate preincubated for 5 mins followed by substrate addition measured after 30 mins by DELFIA
[5] = Cytotoxicity against human CFPAC cells assessed as growth inhibition by measuring ATP levels after 72 hrs by ATPlite assay; type: functional, cell-based
[6] = biological target: Tyrosine-protein kinase ABL1 (Homo sapiens, UniProt P00519); assay: as §1, with “Abl1 (Pro118” for “c-Kit (Thr544”, “Ser553” for “Val976”, “biotin signal transduction protein” for “biotinylated KDR”, “Tyr160” for “Tyr996”
Tyrosine-protein kinase ABL1, sequence (P00519 whole entry): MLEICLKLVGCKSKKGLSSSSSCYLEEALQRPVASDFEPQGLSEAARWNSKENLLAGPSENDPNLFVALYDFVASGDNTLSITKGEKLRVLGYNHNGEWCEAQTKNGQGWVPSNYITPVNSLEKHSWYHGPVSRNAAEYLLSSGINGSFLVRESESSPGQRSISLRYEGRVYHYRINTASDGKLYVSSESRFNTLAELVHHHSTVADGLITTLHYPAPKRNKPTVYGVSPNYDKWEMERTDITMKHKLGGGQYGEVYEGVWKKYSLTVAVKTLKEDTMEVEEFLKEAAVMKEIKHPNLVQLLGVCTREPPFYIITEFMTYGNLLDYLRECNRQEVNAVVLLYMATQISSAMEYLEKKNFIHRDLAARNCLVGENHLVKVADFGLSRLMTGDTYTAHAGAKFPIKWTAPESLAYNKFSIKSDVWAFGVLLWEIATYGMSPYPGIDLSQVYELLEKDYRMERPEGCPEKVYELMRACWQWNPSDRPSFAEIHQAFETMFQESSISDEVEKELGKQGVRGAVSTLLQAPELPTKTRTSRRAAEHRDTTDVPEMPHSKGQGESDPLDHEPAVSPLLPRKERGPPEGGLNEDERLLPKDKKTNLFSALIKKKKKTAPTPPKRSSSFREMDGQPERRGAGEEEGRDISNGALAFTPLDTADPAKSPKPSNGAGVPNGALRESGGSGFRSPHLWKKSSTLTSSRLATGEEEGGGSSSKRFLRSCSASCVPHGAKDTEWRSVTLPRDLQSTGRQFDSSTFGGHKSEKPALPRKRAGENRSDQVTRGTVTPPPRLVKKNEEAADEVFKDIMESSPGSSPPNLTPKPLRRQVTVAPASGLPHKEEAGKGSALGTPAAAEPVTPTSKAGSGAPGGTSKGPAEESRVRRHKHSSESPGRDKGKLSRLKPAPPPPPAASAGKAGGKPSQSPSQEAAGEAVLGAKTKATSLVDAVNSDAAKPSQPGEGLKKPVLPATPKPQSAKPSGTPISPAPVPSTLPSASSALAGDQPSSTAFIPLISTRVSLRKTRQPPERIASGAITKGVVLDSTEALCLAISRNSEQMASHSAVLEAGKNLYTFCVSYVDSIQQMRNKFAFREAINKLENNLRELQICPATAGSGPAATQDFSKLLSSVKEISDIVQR

[7] = biological target: Proto-oncogene tyrosine-protein kinase Src (Homo sapiens, UniProt P12931); assay: Inhibition of human N-terminal GST-tagged full length human Src (Met1 to Leu536 residues) expressed in baculovirus expression system assessed as decrease in biotin signal transduction protein phosphorylation at Tyr160 preincubated for 5 mins followed by substrate addition measured after 30 mins by DELFIA method
Proto-oncogene tyrosine-protein kinase Src, sequence (P12931 2-536 limits assumed): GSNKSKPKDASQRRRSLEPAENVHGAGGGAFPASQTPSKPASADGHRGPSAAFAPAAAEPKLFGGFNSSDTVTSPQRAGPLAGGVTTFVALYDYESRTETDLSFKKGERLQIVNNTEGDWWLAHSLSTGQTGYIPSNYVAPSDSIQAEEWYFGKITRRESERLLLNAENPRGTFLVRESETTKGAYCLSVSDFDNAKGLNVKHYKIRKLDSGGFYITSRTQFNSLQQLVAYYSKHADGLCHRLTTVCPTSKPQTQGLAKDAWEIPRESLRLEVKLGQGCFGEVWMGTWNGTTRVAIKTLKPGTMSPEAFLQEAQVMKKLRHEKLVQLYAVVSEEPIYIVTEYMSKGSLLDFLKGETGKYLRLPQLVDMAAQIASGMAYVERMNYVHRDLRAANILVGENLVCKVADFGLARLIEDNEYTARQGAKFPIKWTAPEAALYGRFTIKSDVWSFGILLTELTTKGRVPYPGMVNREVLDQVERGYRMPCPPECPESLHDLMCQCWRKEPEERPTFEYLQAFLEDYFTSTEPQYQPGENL

[8] = biological target: Cyclin-dependent kinase 2/cyclin E1 (Homo sapiens, UniProt P24941); assay: Inhibition of C-terminal His6-tagged full length CDK2/N-terminal GST-tagged recombinant full length human cyclin E1 expressed in baculovirus infected SF21 insect cells using histone H1 as substrate after 2 hrs in presence of [gamma-33P]-ATP
[9] = biological target: Receptor tyrosine-protein kinase erbB-2 (Homo sapiens, UniProt P04626); assay: Inhibition of N-terminal GST-tagged human HER2 (Lys676 to Val1255 residues) expressed in baculovirus expression system using biotinylated FLT3 at Tyr589 as substrate preincubated for 5 mins followed by substrate addition measured after 30 mins by DELFIA method
CDK6/cyclin D3 = CDK6/cyclin D3 (Homo sapiens, UniProt Q00534); assay: Inhibition of N-terminal His6-tagged full length human CDK6/N-terminal GST-tagged recombinant full length human cyclin D3 expressed in baculovirus infected SF21 insect cells using histone H1 as substrate after 2 hrs in presence of [gamma-33P]-ATP
CDK6/cyclin D3, sequence (P30281 whole entry): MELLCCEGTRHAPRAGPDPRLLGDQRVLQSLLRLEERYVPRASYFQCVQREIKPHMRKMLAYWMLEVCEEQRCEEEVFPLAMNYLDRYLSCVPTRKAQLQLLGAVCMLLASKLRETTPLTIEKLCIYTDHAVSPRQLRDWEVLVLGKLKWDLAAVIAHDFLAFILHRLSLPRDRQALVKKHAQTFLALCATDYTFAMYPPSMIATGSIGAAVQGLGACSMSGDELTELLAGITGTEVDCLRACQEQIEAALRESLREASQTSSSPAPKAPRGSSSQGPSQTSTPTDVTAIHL
CDK6/cyclin D3, sequence (Q00534 whole entry): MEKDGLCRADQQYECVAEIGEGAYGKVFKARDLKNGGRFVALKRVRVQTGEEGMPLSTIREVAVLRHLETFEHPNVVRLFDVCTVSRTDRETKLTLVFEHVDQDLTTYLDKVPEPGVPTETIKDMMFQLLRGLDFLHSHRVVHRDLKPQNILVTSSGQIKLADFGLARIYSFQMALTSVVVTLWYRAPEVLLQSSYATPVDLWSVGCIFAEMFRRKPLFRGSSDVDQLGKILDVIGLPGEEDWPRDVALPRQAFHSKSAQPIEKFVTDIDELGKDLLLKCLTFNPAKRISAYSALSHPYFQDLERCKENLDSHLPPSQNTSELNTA

SK-BR-3 = assay: Induction of apoptosis in human SKBR3 cells assessed as increase in caspase3/7 activity after 24 hrs; type: functional, cell-based; details: SK-BR-3, 24 h
HCT-116 = assay: Induction of apoptosis in human HCT116 cells assessed as increase in caspase3/7 activity after 24 hrs; type: functional, cell-based; details: HCT-116, 24 h
[10] = Chemical stability in diluted solution; type: physicochemical

With `O=C(CCCCCCC(=O)NCc1cc(Oc2ccc(NC(=O)Nc3ccc(Cl)c(C(F)(F)F)c3)cc2)ccn1)NO` the IC50 [1] was no more than 0.1 µM, the IC50 [2] was no more than 0.1 µM and the IC50 [3] was 0.1 to 1 µM.
For `COc1cc2ncnc(Nc3ccc(F)c(Cl)c3)c2cc1OCCOc1ccc(/C=C/C(=O)NO)cc1`, the IC50 [4] was no more than 0.1 µM and the IC50 [5] was no less than 10 µM.
For `Cc1nc(NCCCCCCC(=O)NO)cc(Nc2ncc(C(=O)Nc3c(C)cccc3Cl)s2)n1`, the IC50 [1] was no more than 0.1 µM, the IC50 [6] was no more than 0.1 µM and the IC50 [3] was no more than 0.1 µM. The IC50 [7] was no more than 0.1 µM.
In the case of `CC(C)(C)c1cnc(CSc2cnc(NC(=O)CCCCCCC(=O)NO)s2)o1`, the IC50 [8] is reported as no more than 0.1 µM.
`COc1cc2ncnc(NCc3ccccc3)c2cc1OCCCCCCC(=O)NO` showed an IC50 [5] of 1 to 10 µM.
For `Cc1nc(Nc2ncc(C(=O)Nc3c(C)cccc3Cl)s2)cc(N2CCN(CCCCCC(=O)NO)CC2)n1`, the IC50 [1] was no more than 0.1 µM, the IC50 [6] was no more than 0.1 µM and the IC50 [3] was no more than 0.1 µM. It also gave an IC50 [7] of no more than 0.1 µM.
For `O=C(CCCCCCCNC(=O)c1cc(Oc2ccc(NC(=O)Nc3ccc(Cl)c(C(F)(F)F)c3)cc2)ccn1)NO`, the IC50 [1] was no more than 0.1 µM, the IC50 [2] was 0.1 to 1 µM and the IC50 [3] was 0.1 to 1 µM.
Work on `CC(C)(C)c1cnc(CSc2cnc(NC(=O)Cc3ccc(OCCCC(=O)NO)cc3)s2)o1` yielded an IC50 [8] of no more than 0.1 µM.
Compound `COCCOc1cc2ncnc(Nc3ccc(F)c(Cl)c3)c2cc1NC(=O)CCCCCCC(=O)NO` has an IC50 [9] of no more than 0.1 µM and an IC50 [5] of 1 to 10 µM.
For `CC(C)(C)c1cnc(CSc2cnc(NC(=O)CCCC(=O)NO)s2)o1`, the IC50 [8] was no more than 0.1 µM and the IC50 (CDK6/cyclin D3) was 0.1 to 1 µM.
For `CC(C)(C)c1cnc(CSc2cnc(NC(=O)CCCCC(=O)NO)s2)o1`, the IC50 [8] was no more than 0.1 µM and the IC50 (CDK6/cyclin D3) was 0.1 to 1 µM.
`Cc1nc(NCCCCCC(=O)NO)cc(Nc2ncc(C(=O)Nc3c(C)cccc3Cl)s2)n1` gave an IC50 [1] of no more than 0.1 µM, an IC50 [6] of no more than 0.1 µM and an IC50 [3] of no more than 0.1 µM. It also gave an IC50 [7] of no more than 0.1 µM.
In the case of `CC(C)(C)c1cnc(CSc2cnc(NC(=O)CCCCCC(=O)NO)s2)o1`, the IC50 [8] is reported as no more than 0.1 µM and the IC50 (CDK6/cyclin D3) is reported as 0.1 to 1 µM.
Compound `O=C(CCCCC(=O)NCc1cc(Oc2ccc(NC(=O)Nc3ccc(Cl)c(C(F)(F)F)c3)cc2)ccn1)NO` has an IC50 [1] of no more than 0.1 µM, an IC50 [2] of no more than 0.1 µM and an IC50 [3] of 0.1 to 1 µM.
With `Cc1nc(Nc2ncc(C(=O)Nc3c(C)cccc3Cl)s2)cc(N2CCN(CCCCC(=O)NO)CC2)n1` the IC50 [6] was no more than 0.1 µM, the IC50 [3] was no more than 0.1 µM and the IC50 [7] was no more than 0.1 µM.
Work on `O=C(CCCCCCOc1ccc2ncnc(Nc3ccc(F)c(Cl)c3)c2c1)NO` yielded an IC50 [9] of 0.1 to 1 µM and an IC50 [5] of 0.1 to 1 µM.
`COc1cc2ncnc(N[C@H](C)c3ccccc3)c2cc1OCCCCCC(=O)NO` gave an IC50 [5] of 1 to 10 µM.
Compound `Cc1nc(Nc2ncc(C(=O)Nc3c(C)cccc3Cl)s2)cc(N2CCN(CCCCCCC(=O)NO)CC2)n1` has an IC50 [1] of no more than 0.1 µM, an IC50 [6] of no more than 0.1 µM and an IC50 [3] of no more than 0.1 µM. For the same compound, the IC50 [7] was no more than 0.1 µM.
Work on `C#Cc1cccc(Nc2ncnc3cc(OCCOC)c(OCCOC)cc23)c1` [ERLOTINIB] yielded an IC50 (SK-BR-3) greater than 20 µM and an IC50 (HCT-116) greater than 20 µM.
Compound `CC(C)(C)c1cnc(CSc2cnc(NC(=O)Cc3ccc(OCCCCC(=O)NO)cc3)s2)o1` has an IC50 [8] of no more than 0.1 µM.
In the case of `COc1cc2ncnc(Nc3ccc(F)c(Cl)c3)c2cc1NC(=O)CCCCCCC(=O)NO`, the IC50 [9] is reported as 0.1 to 1 µM and the IC50 [5] is reported as 1 to 10 µM.
`C#Cc1cccc(Nc2ncnc3cc(OC)c(OCCCCCCC(=O)N[O-])cc23)c1.[Na+]` showed a Stability [10] greater than 12 h.
